Reference: patent US8247556B2, “Method for preparing 6-substituted-7-aza-indoles” (Amgen Inc., priority 2005, dated 2012)

Experiments:
CYP 2D6 = molecular target: T1, CYP 2D6 (Homo sapiens, UniProt P10635); experiment: Human Liver Microsome CYP 2D6 Inhibition; type: in vitro ADME; settings: human liver microsomes, bufuralol substrate; read-out: inhibited CYP2D6 microsomes, IC50
T1 construct: followed by 555.6 ml of 20 mg/mL HLM (BD Gentest); tissue BD Gentest; host or cells: human liver microsomes
Protocol: Determining the IC-50 for Human Liver Microsome CYP 2D6 Inhibition
Postassium Phosphate Buffer pH 7.4 (39.333 mL) is chilled in an ice bath and added to a 50 ml plastic tube. A 3.2 mM bufuralol solution is prepared. 111.1 ul of 3.2 mM bufuralol is added to the buffer followed by 555.6 ml of 20 mg/mL HLM (BD Gentest). The incubation mixture was gently inverted and equilibrated at 37° C. for 5 min. A stock inhibitor solution is prepared, such as in DMSO. Incubation mixture (801 ul) is added into 96-well, 1.2 mL plastic tubes. Inhibitor is added at various concentrations (e.g. 30 μM to […]). The tubes are sealed and mix by inverting 5 times gently. The incubation mixture containing inhibitor (270 μL) is added by aliquot into wells of a 1 mL, 96-well block (duplicate). The block is placed into a 37° C. water bath and equilibrated for 3 minutes. 10 mM NADPH (30 ml) is added to all samples. After 5 min, the reactions are stopped by adding 300 ml of Quench Solution [0.1% TFA in CH3CN]. 1′-OH-bufuralol-d9 (750 ng/mL 30 μL) is added, the block is gently vortexed then centrifuged at 3000 rpm for 10 min at 4° C. 50 μL of supernatant from all samples is added by aliquot into a shorter, 96-well block. The aliquoted supernatants are pooled with other assay(s) and HPLC Grade Water (50 μL) is added to all samples. After covering and shaking by vortex gently for 2 minutes, the solutions were analyzed by LC-MS (API 3000, 5% MeOH w/0.1% AcOH to 95% MeOH w/0.1% AcOH). 500 nM quinidine is used as a control.

[1] = system: VEGF-stimulated HUVEC proliferation (Human Umbilical Vein Endothelial cells); experiment: HUVEC Proliferation Assay; type: cell-based; settings: VEGF 50 ng/mL, 72 h, CyQuant fluorescent dye, read-out: inhibited VEGF-stimulated HUVEC proliferation at a level
Protocol: Human Umbilical Vein Endothelial cells are purchased from Clonetics, Inc., as cryopreserved cells harvested from a pool of donors. These cells, at passage 1, are thawed and expanded in EBM-2 complete medium, until passage 2 or 3. The cells are trypsinized, washed in DMEM+10% FBS+antibiotics, and spun at 1000 rpm for 10 min. Prior to centrifugation of the cells, a small amount is collected for a cell count. After centrifugation, the medium is discarded, and the cells are resuspended in the appropriate volume of DMEM+10% FBS+antibiotics to achieve a concentration of 3×10^5 cells/mL. Another cell count is performed to confirm the cell concentration. The cells are diluted to 3×10^4 cells/mL in DMEM+10% FBS+antibiotics, and 100 μL of cells are added to a 96-well plate. The cells are incubated at 37° C. for 22 h.
Prior to the completion of the incubation period, compound dilutions are prepared. Five-point, five-fold serial dilutions are prepared in DMSO, at concentrations 400-fold greater than the final concentrations desired. 2.5 μL of each compound dilution are diluted further in a total of 1 mL DMEM+10% FBS+antibiotics (400× dilution). Medium containing 0.25% DMSO is also prepared for the 0 μM compound sample. At the 22 h time point, the medium is removed from the cells, and 100 μL of each compound dilution is added. The cells are incubated at 37° C. for 2-3 h.
During the compound pre-incubation period, the growth factors are diluted to the appropriate concentrations. Solutions of DMEM+10% FBS+antibiotics, containing either VEGF or bFGF at the following concentrations: 50, 10, 2, 0.4, 0.08, and 0 ng/mL are prepared. For the compound-treated cells, solutions of VEGF at 550 ng/mL or bFGF at 220 ng/mL for 50 ng/mL or 20 ng/mL final concentrations, respectively, are prepared since 10 μL of each will be added to the cells (110 μL final volume). At the appropriate time after adding the compounds, the growth factors are added. VEGF is added to one set of plates, while bFGF is added to another set of plates. For the growth factor control curves, the media on wells B4-G6 of plates 1 and 2 are replaced with media containing VEGF or bFGF at the varying concentrations (50-0 ng/mL). The cells are incubated at 37° C. for an additional 72 h.
At the completion of the 72 h incubation period, the medium is removed, and the cells are washed twice with PBS. After the second wash with PBS, the plates are tapped gently to remove excess PBS, and the cells are placed at −70° C. for at least 30 min. The cells are thawed and analyzed using the CyQuant fluorescent dye (Molecular Probes C-7026), following the manufacturer's recommendations. The plates are read on a Victor/Wallac 1420 workstation at 485 nm/530 nm (excitation/emission). Raw data are collected and analyzed using a 4-parameter fit equation in XLFit. IC50 values are then determined.

T1 sequence (P10635 whole entry): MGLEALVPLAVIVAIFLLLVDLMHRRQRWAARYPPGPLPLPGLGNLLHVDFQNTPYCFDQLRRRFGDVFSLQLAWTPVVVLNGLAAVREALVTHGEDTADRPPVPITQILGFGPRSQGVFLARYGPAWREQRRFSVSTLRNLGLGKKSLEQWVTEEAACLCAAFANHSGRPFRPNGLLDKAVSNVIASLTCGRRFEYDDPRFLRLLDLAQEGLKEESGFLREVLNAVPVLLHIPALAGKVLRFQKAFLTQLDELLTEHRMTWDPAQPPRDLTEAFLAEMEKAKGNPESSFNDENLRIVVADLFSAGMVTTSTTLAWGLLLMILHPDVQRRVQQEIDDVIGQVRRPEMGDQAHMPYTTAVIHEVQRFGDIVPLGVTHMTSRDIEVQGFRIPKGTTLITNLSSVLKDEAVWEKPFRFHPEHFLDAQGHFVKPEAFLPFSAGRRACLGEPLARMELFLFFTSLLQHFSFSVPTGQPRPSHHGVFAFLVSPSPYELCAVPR

Row | SMILES | IC50 (CYP 2D6) | IC50 [1]
1 | CC1(C)CCNc2cc(NC(=O)c3cccnc3NCc3c[nH]c4ncccc34)ccc21 [Example 40, N-(4,4-Dimethyl-1,2,3,4-tetrahydro-quinolin-7-yl)-2-[(1H-pyrrolo[2,3-b]pyridin-3-ylmethyl)-amino]-nicotinamide] | > 20000 nM | < 500 nM
2 | CC1(C)CCNc2cc(NC(=O)c3cc(F)cnc3NCc3ccnc4[nH]ccc34)ccc21 [Example 82, N-(4,4-dimethyl-1,2,3,4-tetrahydro-7-quinolinyl)-5-fluoro-2-((1H-pyrrolo[2,3-b]pyridin-4-ylmethyl)amino)-3-pyridinecarboxamide] | > 20000 nM | < 500 nM
3 | CC(=O)N1CCC(C)(C)c2ccc(NC(=O)c3cccnc3NCc3ccnc4[nH]ccc34)cc21 [Example 52, N-(1-Acetyl-4,4-dimethyl-1,2,3,4-tetrahydro-quinolin-7-yl)-2-[(1H-pyrrolo[2,3-b]pyridin-4-ylmethyl)-amino]-nicotinamide] | > 20000 nM | < 500 nM
4 | CC(=O)N1CC2(CC2)c2ccc(NC(=O)c3cccnc3NCc3ccnc4[nH]ccc34)cc21 [Example 7] | > 20000 nM | < 500 nM
5 | Cc1nc2cc(NC(=O)c3cc(F)cnc3NCc3ccnc4[nH]ncc34)ccc2s1 [Example 116, 5-fluoro-N-(2-methyl-1,3-benzothiazol-5-yl)-2-((1H-pyrazolo[3,4-b]pyridin-4-ylmethyl)amino)-3-pyridinecarboxamide] | > 20000 nM | < 500 nM
6 | Cc1nc2cc(NC(=O)c3cccnc3NCc3ccnc4[nH]ncc34)ccc2s1 [Example 70, N-(2-Methyl-1,3-benzothiazol-5-yl)-2-((1H-pyrazolo[3,4-b]pyridin-4-ylmethyl)amino)-3-pyridinecarboxamide] | > 20000 nM | < 500 nM
7 | CC1(C)CN(C(=O)C2CCCO2)Cc2cc(NC(=O)c3cccnc3NCc3ccnc4[nH]ccc34)ccc21 (single isomer, unassigned) [Example 14, N-{4,4-Dimethyl-2-[(2R*)-tetrahydrofuran-2-ylcarbonyl]-1,2,3,4-tetrahydroisoquinolin-7-yl}-2-[(1H-pyrrolo[2,3-b]pyridin-4-ylmethyl)amino]nicotinamide] | > 20000 nM | < 500 nM
8 | CC1(C)CN(C(=O)CN)Cc2cc(NC(=O)c3cccnc3NCc3ccnc4[nH]ccc34)ccc21 [Example 15, N-(2-Glycyl-4,4-dimethyl-1,2,3,4-tetrahydroisoquinolin-7-yl)-2-[(1H-pyrrolo[2,3-b]pyridin-4-ylmethyl)amino]nicotinamide] | > 20000 nM | –
9 | Cc1nc2cc(NC(=O)c3cc(F)cnc3NCc3ccnc4[nH]ccc34)ccc2s1 [Example 77, 5-fluoro-N-(2-methyl-1,3-benzothiazol-5-yl)-2-((1H-pyrrolo[2,3-b]pyridin-4-ylmethyl)amino)-3-pyridinecarboxamide] | – | < 500 nM
10 | O=C(Nc1ccc(Cl)cc1)c1cc(F)cnc1NCc1ccnc2[nH]ccc12 [Example 91, N-(4-chlorophenyl)-5-fluoro-2-((1H-pyrrolo[2,3-b]pyridin-4-ylmethyl)amino)-3-pyridinecarboxamide] | – | < 500 nM
11 | O=C(Nc1ccc(C(F)(F)F)c(F)c1)c1cc(F)cnc1NCc1ccnc2[nH]ncc12 [Example 128, 5-Fluoro-N-(3-fluoro-4-(trifluoromethyl)phenyl)-2-((1H-pyrazolo[3,4-b]pyridin-4-ylmethyl)amino)-3-pyridinecarboxamide] | – | < 500 nM
12 | Cc1nc2cc(NC(=O)c3ccc(F)nc3NCc3ccnc4[nH]ccc34)ccc2s1 [Example 37, 2-((1H-Pyrrolo[2,3-b]pyridin-4-yl)methylamino)-6-fluoro-N-(2-methylbenzo[d]thiazol-5-yl)nicotinamide] | – | < 500 nM
13 | O=C(Nc1ccc2ncccc2c1)c1cccnc1NCc1ccnc2[nH]ccc12 [Example 53, 2-[(1H-Pyrrolo[2,3-b]pyridin-4-ylmethyl)-amino]-N-quinolin-6-yl-nicotinamide] | – | < 500 nM
14 | O=C(Nc1cc(CCCN2CCCCC2)cc(C(F)(F)F)c1)c1cccnc1NCc1ccnc2[nH]ccc12 [Example 62, N-[3-(3-Piperidin-1-yl-propyl)-5-trifluoromethyl-phenyl]-2-[(1H-pyrrolo[2,3-b]pyridin-4-ylmethyl)-amino]-nicotinamide] | – | < 500 nM
15 | CN1CCC(Cc2cc(NC(=O)c3cccnc3NCc3ccnc4[nH]ccc34)cc(C(F)(F)F)c2)CC1 [Example 58, N-[3-(1-Methyl-piperidin-4-ylmethyl)-5-trifluoromethyl-phenyl]-2-[(1H-pyrrolo[2,3-b]pyridin-4-ylmethyl)-amino]-nicotinamide] | – | < 500 nM
16 | O=C(Nc1ccc(C(F)(F)C(F)(F)F)c(CN2CCNCC2)c1)c1cccnc1NCc1ccnc2[nH]ccc12 [Example 45, N-(4-Pentafluoroethyl-3-piperazin-1-ylmethyl-phenyl)-2-[(1H-pyrrolo[2,3-b]pyridin-4-ylmethyl)-amino]-nicotinamide] | – | < 500 nM
17 | COC(c1ccc(NC(=O)c2cccnc2NCc2ccnc3[nH]ccc23)cc1)(C(F)(F)F)C(F)(F)F [Example 44, 2-[(1H-Pyrrolo[2,3-b]pyridin-4-ylmethyl)-amino]-N-[4-(2,2,2-trifluoro-1-methoxy-1-trifluoromethyl-ethyl)-phenyl]-nicotinamide] | – | < 500 nM
18 | O=C(Nc1ccc(C(OC[C@@H]2CCCN2)(C(F)(F)F)C(F)(F)F)cc1)c1cccnc1NCc1ccnc2[nH]ccc12 [Example 20, (S)-2-((1H-pyrrolo[2,3-b]pyridin-4-yl)methylamino)-N-(4-(1,1,1,3,3,3-hexafluoro-2-(pyrrolidin-2-ylmethoxy)propan-2-yl)phenyl)nicotinamide] | – | < 500 nM
19 | CC1(C)CNCc2cc(NC(=O)c3cc(F)cnc3NCc3ccnc4[nH]ncc34)ccc21 [Example 129, N-(4,4-Dimethyl-1,2,3,4-tetrahydro-7-isoquinolinyl)-5-fluoro-2-((1H-pyrazolo[3,4-b]pyridin-4-ylmethyl)amino)-3-pyridinecarboxamide] | – | < 500 nM
20 | CN(C)c1nc2cc(NC(=O)c3cc(F)cnc3NCc3ccnc4[nH]ccc34)ccc2s1 [Example 114, N-(2-(dimethylamino)-1,3-benzothiazol-5-yl)-5-fluoro-2-((1H-pyrrolo[2,3-b]pyridin-4-ylmethyl)amino)-3-pyridinecarboxamide] | – | < 500 nM
21 | Cc1ccc(NC(=O)c2cc(F)cnc2NCc2ccnc3[nH]ccc23)cc1F [Example 111, 5-fluoro-N-(3-fluoro-4-methylphenyl)-2-((1H-pyrrolo[2,3-b]pyridin-4-ylmethyl)amino)-3-pyridinecarboxamide] | – | < 500 nM
